Results from patent publication US20250302961A1, “TARGETING MYELOID-DERIVED SUPPRESSOR CELLS (MDSCS) IN BLADDER CANCER TO ENHANCE EFFICACY OF ADOPTIVE CELL THERAPY (ACT)” (H. LEE MOFFITT CANCER CENTER AND RESEARCH INSTITUTE, INC., priority 2022, published 2025).

System: MB49-OVA bladder tumors
Experiment: Gemcitabine pretreatment and ACT with OT-I T-cells in orthotopic MB49-OVA bladder cancer model, tumor growth by ultrasound
Type: in vivo, C57BL/6 mice
Conditions: intravesical 500 ug gemcitabine for 30 minutes, then 5×10^6 OT-I T-cells at day 4 (GEM+OT-I)
Method: For murine studies, orthotopic MB49-OVA bladder tumors were collected, stained for MDSCs, and analyzed by flow cytometry. Urine samples from bladder cancer patients were also collected and stained for MDSCs. From mice, purified MDSCs and OT-I T-cells were cocultured and from bladder cancer patients, purified urine MDSCs and CD3-stimulated peripheral blood T-cells were cocultured to assess suppression of T-cell proliferation or IFN-gamma secretion. Mice bearing MB49-OVA tumors were treated with intravesical instillation of gemcitabine and/or OT-I T-cells and tumor growth was monitored via ultrasound. C57BL/6 female mice were initially anesthetized and catheterized (Terumo), then pre-treated orthotopically with Poly-L-Lysine in PBS (50 uL at 1μg/mL) for 10 minutes. Then bladders were washed with 50 uL PBS and mice received intravesical instillation of 1×10^5 MB49-OVA murine bladder cancer cells for 30 minutes. Presence of bladder tumors were confirmed via the Vevo 2100 ultrasound system (FUJIFILM VisualSonics Inc.) 10 days after tumor inoculation and ultrasound was performed 1X per week until mice were euthanized. To evaluate whether targeting MDSCs with gemcitabine (GEM) improves transfer of T cells, C57BL/6 mice received intravesical instillation of MB49-OVA tumor cells and were monitored via ultrasound. Seven-ten days after intravesical instillation of tumor, mice were separated into three treatment groups and an untreated (UNTX) group. The gemcitabine group (GEM) and the combination gemcitabine and OT-I treatment group (GEM+OT-I) received intravesical instillation of 500 ug gemcitabine for 30 minutes. The OT-I treatment group (OT-I) and GEM+OT-I treatment groups received intravesical instillation of 5×10^6 OT-I T-cells for 3 hours at day 4 after instillation of Gem. Tumor growth was measured via ultrasound.

## Nc1ccn([C@@H]2O[C@H](CO)[C@@H](O)C2(F)F)c(=O)n1 [gemcitabine]
Mice bearing large MB49-OVA tumors (>50 mm3)
  anti-tumor response (tumor growth via ultrasound): improved anti-tumor response
Mice bearing large MB49-OVA tumors (>50 mm3), listed as Gemcitabine
  anti-tumor response (tumor growth via ultrasound): improves adoptive cell therapy (ACT)
Mice bearing smaller MB49-OVA tumors (<50 mm3)
  anti-tumor response (tumor growth via ultrasound): little added benefit to ACT
